What was measured:
Assay in all cases: c-Kit assay: Ba/F3 KIT mutant viability (Cell Titer-Glo, 72 hours)
Type in all cases: cell-based
[1] = molecular target: T1, BAF3 FL KIT EX11DEL/D816H (Homo sapiens, UniProt P10721, D816H, cells depend on it, form not given); settings: viability after 72 hours
T1 construct: "BAF3 FL KIT EX11DEL/ D816H"
Method: (§1) KIT cDNAs were synthesized by GenScript and cloned into the pLVX-IRES-Puro vector (Clontech). Viral particles were produced by transfecting pLVX-IRES-puro vectors containing KIT mutant genes into HEK293 cells (Invitrogen) using the Trans-Lentiviral ORF Packaging Kit (Thermo Scientific). 48 hours post-transfection, virus-containing supernatants were harvested and incubated for another 48-72 hours with parental Ba/F3 cells (DSMZ) in the presence of 10 ng/mL […] (R&D Systems). Transduced Ba/F3 cells were then selected by IL-3 withdrawal and puromycin (0.5-1 μg/mL, Invitrogen).
(§2) Cell lines (i.e., EX11DEL, EX11DEL/D816H, EX11DEL/T670I, and EX11DEL/V654A) were plated into 384 well plates using RPMI 1640 supplemented with 10% FBS at densities that produced linear growth and incubated at 37° C. in 5% (v/v) CO2. Cells were treated with eight concentrations of compound over a 4-fold dilution (10 μM to 0.61 nM) and viability was assessed using Cell Titer-Glo assay (Promega) after 72 hours. Data were plotted as percent viability relative to vehicle-treated cells. Dose-responses curves were generated and used to calculate IC50 values.

BAF3 FL KIT EX11DEL = molecular target: T2, BAF3 FL KIT EX11DEL (Homo sapiens, UniProt P10721, cells depend on it, form not given); settings: viability after 72 hours
T2 construct: "BAF3 FL KIT EX11DEL"
T2 sequence (P10721 with tags, fused parts or gaps DEL557-558): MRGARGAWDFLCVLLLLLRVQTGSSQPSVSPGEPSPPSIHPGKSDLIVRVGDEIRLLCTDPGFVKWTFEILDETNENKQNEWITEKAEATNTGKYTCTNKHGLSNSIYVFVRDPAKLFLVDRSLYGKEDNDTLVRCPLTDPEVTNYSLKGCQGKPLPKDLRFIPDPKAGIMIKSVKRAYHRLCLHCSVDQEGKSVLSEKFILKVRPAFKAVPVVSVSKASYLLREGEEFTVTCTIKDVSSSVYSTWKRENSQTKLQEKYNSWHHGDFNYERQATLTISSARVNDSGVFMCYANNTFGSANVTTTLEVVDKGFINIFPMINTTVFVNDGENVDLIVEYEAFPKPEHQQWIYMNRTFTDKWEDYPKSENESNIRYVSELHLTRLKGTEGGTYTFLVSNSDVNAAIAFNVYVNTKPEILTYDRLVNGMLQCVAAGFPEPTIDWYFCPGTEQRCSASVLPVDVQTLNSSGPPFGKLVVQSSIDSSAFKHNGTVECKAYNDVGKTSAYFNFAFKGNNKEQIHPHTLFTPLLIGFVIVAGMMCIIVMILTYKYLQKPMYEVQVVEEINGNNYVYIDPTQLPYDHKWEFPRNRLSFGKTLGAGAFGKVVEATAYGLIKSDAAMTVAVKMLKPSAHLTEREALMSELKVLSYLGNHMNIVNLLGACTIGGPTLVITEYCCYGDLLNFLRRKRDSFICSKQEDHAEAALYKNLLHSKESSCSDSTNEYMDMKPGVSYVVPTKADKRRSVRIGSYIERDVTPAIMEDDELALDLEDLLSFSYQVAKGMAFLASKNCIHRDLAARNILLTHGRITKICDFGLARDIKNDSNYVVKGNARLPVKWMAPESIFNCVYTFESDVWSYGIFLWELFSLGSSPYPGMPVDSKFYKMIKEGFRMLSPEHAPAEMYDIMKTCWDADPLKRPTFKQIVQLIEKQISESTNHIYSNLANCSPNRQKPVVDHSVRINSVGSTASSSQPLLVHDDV
Method: as §1, §2

[2] = molecular target: T3, BAF3 FL KIT EX11DEL/V654A (Homo sapiens, UniProt P10721, V654A, cells depend on it, form not given); settings: viability after 72 hours
T3 construct: "BAF3 FL KIT EX11DEL/ V654A"
T3 sequence (P10721 with tags, fused parts or gaps DEL557-558/V654A, form open): as the sequence (P10721 with tags, fused parts or gaps DEL557-558) above, with V652A counted along it
Method: as §1, §2

[3] = molecular target: T4, BAF3 FL KIT EX11DEL/T6701 (Homo sapiens, UniProt P10721, T670I, cells depend on it, form not given); settings: EX11DEL/T6701, viability after 72 hours
T4 construct: "BAF3 FL KIT EX11DEL/ T6701"
T4 sequence (P10721 with tags, fused parts or gaps DEL557-558/T670I, form open): as the sequence (P10721 with tags, fused parts or gaps DEL557-558) above, with T668I counted along it
Method: as §1, §2

T1 sequence (P10721 with tags, fused parts or gaps DEL557-558/D816H, form open): as the sequence (P10721 with tags, fused parts or gaps DEL557-558) above, with D814H counted along it

| SMILES | GI50 [1] [nM] | GI50 (BAF3 FL KIT EX11DEL) [nM] | GI50 [2] [nM] | GI50 [3] [nM] |
| --- | --- | --- | --- | --- |
| Cc1ccc(C(=O)Nc2cc(C(F)(F)F)ccn2)cc1C#Cc1ccc2c(c1)ncn2-c1cnn(C2CCNCC2)c1 [Compound I-26, 4-methyl-3-((1-(1-(piperidin-4-yl)-1H-pyrazol-4-yl)-1H-benzo[d]imidazol-5-yl)ethynyl)-N-(4-(trifluoromethyl)pyridin-2-yl)benzamide] | 10 to 50 | < 10 | 10 to 50 | 10 to 50 |
| Cc1ccc(C(=O)Nc2cc(C(F)(F)F)ccn2)cc1C#Cc1ccc2nc(N)[nH]c2c1 [Compound I-10, 3-((2-amino-1H-benzo[d]imidazol-6-yl)ethynyl)-4-methyl-N-(4-(trifluoromethyl)pyridin-2-yl)benzamide] | 100 to 10000 | 10 to 50 | 100 to 10000 | 100 to 10000 |
| Cc1ccc(NC(=O)c2ccc(CN3CCCC3)c(C(F)(F)F)c2)cc1C#Cc1ccc2c(c1)ncn2-c1cnn(C)c1 [Compound I-47, N-(4-methyl-3-((1-(1-methyl-1H-pyrazol-4-yl)-1H-benzo[d]imidazol-5-yl)ethynyl)phenyl)-4-(pyrrolidin-1-ylmethyl)-3-(trifluoromethyl)benzamide] | 100 to 10000 | 10 to 50 | 100 to 10000 | 50 to 100 |
| Cc1ccc(C(=O)Nc2cc(C(F)(F)F)ccn2)cc1C#Cc1ccc2c(c1)ncn2-c1cnn(C)c1 [Compound I-19, 4-methyl-3-((1-(1-methyl-1H-pyrazol-4-yl)-1H-benzo[d]imidazol-5-yl)ethynyl)-N-(4-(trifluoromethyl)pyridin-2-yl)benzamide] | 10 to 50 | < 10 | 10 to 50 | < 10 |
| Cc1ccc(C(=O)Nc2cc(C(F)(F)F)ccn2)cc1C#Cc1ccc2c(c1)ncn2C1CC1 [Compound I-13, 3-((1-cyclopropyl-1H-benzo[d]imidazol-5-yl)ethynyl)-4-methyl-N-(4-(trifluoromethyl)pyridin-2-yl)benzamide] | 100 to 10000 | 10 to 50 | 100 to 10000 | 100 to 10000 |
| CNC(=O)Cn1cnc2cc(C#Cc3cc(C(=O)Nc4cc(C(F)(F)F)ccn4)ccc3C)ccc21 [Compound I-1, 4-Methyl-3-((1-(2-(methylamino)-2-oxoethyl)-1H-benzo[d]imidazol-5-yl)ethynyl)-N-(4-(trifluoromethyl)pyridin-2-yl)benzamide] | 100 to 10000 | < 10 | 100 to 10000 | 100 to 10000 |
| Cc1ccc(NC(=O)c2cc(C(F)(F)F)ccn2)cc1C#Cc1ccc2c(c1)ncn2-c1cnn(C2CCN(C)CC2)c1 [Compound I-40] | 100 to 10000 | < 10 | 100 to 10000 | 10 to 50 |
| Cc1ccc(C(=O)Nc2cc(C(F)(F)F)ccn2)cc1C#Cc1ccc2c(c1)ncn2-c1ccc(N2CCN(C)CC2)cc1 [Compound I-15, 4-methyl-3-((1-(4-(4-methylpiperazin-1-yl)phenyl)-1H-benzo[d]imidazol-5-yl)ethynyl)-N-(4-(trifluoromethyl)pyridin-2-yl)benzamide] | 100 to 10000 | 50 to 100 | 100 to 10000 | 100 to 10000 |
| CCn1cnc2cc(C#Cc3cc(C(=O)Nc4cc(C(F)(F)F)ccn4)ccc3C)ccc21 [Compound I-7, 3-((1-ethyl-H-benzo[d]imidazol-5-yl)ethynyl)-4-methyl-N-(4-(trifluoromethyl)pyridin-2-yl)benzamide] | 100 to 10000 | 10 to 50 | 100 to 10000 | 50 to 100 |
| Cc1ccc(C(=O)Nc2ccc(N3CCN(C)CC3)c(C(F)(F)F)c2)cc1C#Cc1ccc2c(c1)ncn2C [Compound I-22, 4-methyl-3-((1-methyl-1H-benzo[d]imidazol-5-yl)ethynyl)-N-(4-(4-methylpiperazin-1-yl)-3-(trifluoromethyl)phenyl)benzamide] | 100 to 10000 | 100 to 10000 | 100 to 10000 | 100 to 10000 |
| Cc1ccc(NC(=O)c2cc(C(F)(F)F)ccn2)cc1C#Cc1ccc2c(c1)ncn2-c1cnn(C)c1 [Compound I-44, N-(4-methyl-3-((1-(1-methyl-1H-pyrazol-4-yl)-1H-benzo[d]imidazol-5-yl)ethynyl)phenyl)-4-(trifluoromethyl)picolinamide] | 10 to 50 | < 10 | 10 to 50 | 10 to 50 |
| Cc1ccc(C(=O)Nc2cc(C(F)(F)F)ccn2)cc1C#Cc1ccc2c(c1)ncn2-c1cnn(C2CCN(C=O)CC2)c1 [Compound I-25, 3-((1-(1-(1-formylpiperidin-4-yl)-1H-pyrazol-4-yl)-1H-benzo[d]imidazol-5-yl)ethynyl)-4-methyl-N-(4-(trifluoromethyl)pyridin-2-yl)benzamide] | 10 to 50 | < 10 | 10 to 50 | < 10 |
| Cn1cc(-n2cnc3cc(C#Cc4cc(NC(=O)c5cc(C(F)(F)F)ccn5)ccc4F)ccc32)cn1 [Compound I-52, N-(4-fluoro-3-((1-(1-methyl-1H-pyrazol-4-yl)-1H-benzo[d]imidazol-5-yl)ethynyl)phenyl)-4-(trifluoromethyl)picolinamide] | 100 to 10000 | < 10 | 50 to 100 | < 10 |
| Cc1ccc(C(=O)Nc2cccc(C3CC3)c2)cc1C#Cc1ccc2c(c1)ncn2-c1cnn(C)c1 [Compound I-28, N-(3-cyclopropylphenyl)-4-methyl-3-((1-(1-methyl-1H-pyrazol-4-yl)-1H-benzo[d]imidazol-5-yl)ethynyl)benzamide] | 50 to 100 | 10 to 50 | 50 to 100 | 10 to 50 |
| Cc1ccc(C(=O)Nc2cc(C(F)(F)F)ccn2)cc1C#Cc1ccc2c(c1)ncn2-c1cnn(C)c1 [Compound I-17, 4-methyl-3-((1-(1-methyl-1H-pyrazol-4-yl)-1H-benzo[d]imidazol-5-yl)ethynyl)-N-(4-(trifluoromethyl)pyridin-2-yl)benzamide] | 50 to 100 | 10 to 50 | 10 to 50 | 10 to 50 |
| Cc1ccc(C(=O)Nc2cc(C(F)(F)F)ccn2)cc1C#Cc1ccc2c(c1)ncn2-c1cn(C2CCN(C)CC2)cn1 [Compound I-34, 4-methyl-3-((1-(1-(1-methylpiperidin-4-yl)-1H-imidazol-4-yl)-1H-benzo[d]imidazol-5-yl)ethynyl)-N-(4-(trifluoromethyl)pyridin-2-yl)benzamide] | 100 to 10000 | < 10 | 100 to 10000 | 10 to 50 |
| COCCn1cc(-n2cnc3cc(C#Cc4cc(NC(=O)c5cc(C(F)(F)F)ccn5)ccc4C)ccc32)cn1 [Compound I-38, N-(3-((1-(1-(2-methoxyethyl)-1H-pyrazol-4-yl)-1H-benzo[d]imidazol-5-yl)ethynyl)-4-methylphenyl)-4-(trifluoromethyl)picolinamide] | 50 to 100 | < 10 | 10 to 50 | 10 to 50 |
| Cc1ccc(C(=O)Nc2cc(C(F)(F)F)ccn2)cc1C#Cc1ccc2ncn(C)c2c1 [Compound I-11, 4-methyl-3-((1-methyl-1H-benzo[d]imidazol-6-yl)ethynyl)-N-(4-(trifluoromethyl)pyridin-2-yl)benzamide] | 100 to 10000 | 100 to 10000 | 100 to 10000 | 100 to 10000 |
| COCCn1cnc2cc(C#Cc3cc(C(=O)Nc4cc(C(F)(F)F)ccn4)ccc3C)ccc21 [Compound I-4, 3-((1-(2-methoxyethyl)-1H-benzo[d]imidazol-5-yl)ethynyl)-4-methyl-N-(4-(trifluoromethyl)pyridin-2-yl)benzamide] | 100 to 10000 | < 10 | 50 to 100 | 50 to 100 |
| Cc1ccc(C(=O)Nc2cc(C(F)(F)F)ccn2)cc1C#Cc1ccc2c(c1)ncn2CCCN(C)C [Compound I-6, 3-((1-(3-(dimethylamino)propyl)-1H-benzo[d]imidazol-5-yl)ethynyl)-4-methyl-N-(4-(trifluoromethyl)pyridin-2-yl)benzamide] | 100 to 10000 | 10 to 50 | 100 to 10000 | 50 to 100 |
| Cc1ccc(NC(=O)c2cc(C(F)(F)F)ccn2)cc1C#Cc1ccc2c(c1)ncn2-c1cnn(CCN(C)C)c1 [Compound I-41, N-(3-((1-(1-(2-(dimethylamino)ethyl)-1H-pyrazol-4-yl)-1H-benzo[d]imidazol-5-yl)ethynyl)-4-methylphenyl)-4-(trifluoromethyl)picolinamide] | 100 to 10000 | < 10 | 50 to 100 | 10 to 50 |
| Cc1ccc(C(=O)Nc2cc(C(F)(F)F)ccn2)cc1C#Cc1ccc2c(c1)ncn2-c1cn(C)cn1 [Compound I-23, 4-methyl-3-((1-(1-methyl-1H-imidazol-4-yl)-1H-benzo[d]imidazol-5-yl)ethynyl)-N-(4-(trifluoromethyl)pyridin-2-yl)benzamide] | 10 to 50 | < 10 | 10 to 50 | < 10 |
